In patent publication US20250324973A1, “Pest Control Composition and Control Method” (priority 2021, published 2025):

Experiments:
Type in all cases: in vivo
[1] = tested on: small brown planthopper, susceptible line or reduced susceptible line; test: Test Example 20: spray on rice seedlings, mortality rate; settings: small brown planthopper 3rd-instar larvae on rice; 0.05-200 ppm; six days
Protocol: Natural pyrethrin or MX is formulated according to the method described in the Formulation Example 1. Similarly, flupyradifuron and flupyrimin are formulated according to the method described in the Formulation Example 1, respectively. Each of the above formulations is diluted with water containing 0.05% by volume of a spreading agent (product name: Shindain (registered trademark)) so that the concentration of active ingredient may be 0.05 ppm, 0.2 ppm, 0.8 ppm, 3.1 ppm, 12.5 ppm, 50 ppm or 200 ppm. Admire water dispersible granule (Active ingredient: imidacloprid, manufactured by Bayer CropScience K.K.), TREBON emulsifiable concentrate (Active ingredient: etofenprox, manufactured by Mitsui Chemicals Agro, Inc.), PRINCE flowable (Active ingredient: fipronil, manufactured by BASF Japan Ltd.), KIRAPPU flowable (Active ingredient: ethiprole, manufactured by Bayer CropScience K.K.), and APPLAUD flowable (Active ingredient: buprofezin, manufactured by NIHON NOHYAKU CO., LTD), which are commercial products, are diluted with water containing 0.05% by volume of a spreading agent (product name: Shindain (registered trademark)), respectively so that the concentration of active ingredient may be 0.05 ppm, 0.2 ppm, 0.8 ppm, 3.1 ppm, 12.5 ppm, 50 ppm or 200 ppm. The resulting dilution is sprayed to seedlings (at the 2.5-leaf stage) of rice (Oryza sativa) planted in a container at a rate of 10 ml/seedling. After that, 20 3rd-instar larvae of small brown planthopper of a susceptible line (a line that have been bred successively in Health & Crop Sciences Research Laboratory of Sumitomo Chemical Co., Ltd.) or small brown planthopper of a reduced susceptible line (a line that have been bred successively without selection after collecting in Nagasaki prefecture in 2016) are released thereto. Six days later, the number of surviving insects is observed, and a mortality rate of insect is calculated by the formula 2). On the other hand, rice is cultivated in the same way as in the treated plot, except that the dilution containing natural pyrethrin or MX is not sprayed (this is referred to as an untreated plot).

[2] = tested on: diamondback moth, susceptible line or reduced susceptible line; test: Test Example 19: spray on cabbage seedlings, mortality rate; settings: diamondback moth 3rd-instar larvae on cabbage; 0.05-200 ppm; five days
Protocol: Natural pyrethrin or MX is formulated according to the method described in the Formulation Example 1. Each of the above formulations is diluted with water containing 0.05% by volume of a spreading agent (product name: Shindain (registered trademark)) so that the concentration of active ingredient may be 0.05 ppm, 0.2 ppm, 0.8 ppm, 3.1 ppm, 12.5 ppm, 50 ppm or 200 ppm. Phoenix water dispersible granule (Active ingredient: flubendiamide, manufactured by NIHON NOHYAKU CO., LTD), PREVATHON flowable 5 (Active ingredient: chlorantraniliprole, manufactured by Nissan Chemical Corporation) and BENEVIA OD (Active ingredient: cyantraniliprole, manufactured by KUMIAI CHEMICAL INDUSTRY CO., LTD.), which are commercial products, are diluted with water containing 0.05% by volume of a spreading agent (product name: Shindain (registered trademark)), respectively so that the concentration of active ingredient may be 0.05 ppm, 0.2 ppm, 0.8 ppm, 3.1 ppm, 12.5 ppm, 50 ppm or 200 ppm. The resulting dilution is sprayed to seedlings (at the 3rd to 4th true leaf unfolding stage) of cabbage (Brassicae oleracea) planted in a container at a rate of 20 ml/seedling. After that, 10 3rd-instar larvae of diamondback moth of a susceptible line (a line that have been bred successively in Health & Crop Sciences Research Laboratory of Sumitomo Chemical Co., Ltd.) or diamondback moth of a reduced susceptible line (a line that have been bred successively without selection after collecting in Kumamoto prefecture in 2016) are released thereto. Five days later, the number of surviving insects is counted, and a mortality rate of insect is calculated by formula 3). On the other hand, cabbages are cultivated in the same way as in the treated plot, except that the dilution containing natural pyrethrin or MX is not sprayed (this is referred to as an untreated plot).

[3] = tested on: cotton aphids, susceptible line or reduced susceptible line; test: Test Example 17: spray on cucumber seedlings, control value; settings: 0.05-200 ppm, 10 ml/seedling, six days after spraying
Source text: Natural pyrethrin or MX is formulated according to the method described in the Formulation Example 1. Similarly, triflumezopyrim, flupyradifuron, or flupyrimin is formulated according to the method described in the Formulation Example 1, respectively. Each dilution is obtained by diluting each of the above formulations with water containing 0.05% by volume of a spreading agent (product name: Shindain (registered trademark)) so that the concentration of active ingredient may be 0.05 ppm, 0.2 ppm, 0.8 ppm, 3.1 ppm, 12.5 ppm, 50 ppm or 200 ppm. Each dilution is obtained by diluting Admire wettable powder (Active ingredient: imidacloprid, manufactured by Bayer CropScience K.K.) and Actara water dispersible granule (Active ingredient: thiamethoxam, manufactured by Syngenta Japan K.K.), which are commercial products, with water containing 0.05% by volume of a spreading agent (product name: Shindain (registered trademark)) so that the concentration of active ingredient may be 0.05 ppm, 0.2 ppm, 0.8 ppm, 3.1 ppm, 12.5 ppm, 50 ppm or 200 ppm. Cucumber seedlings (at the second true leaf unfolding stage) planted in a container are inoculated with 30 cotton aphids (including all growth stages) which are a susceptible line (a line that have been bred successively in Health & Crop Sciences Research Laboratory of Sumitomo Chemical Co., Ltd.) or a reduced susceptible line (a line that have been bred successively without selection after collecting in Miyazaki prefecture in 2016). One day later, the resulting dilution is sprayed to the seedlings at a rate of 10 ml/seedling. On the other hand, cucumbers are cultivated in the same way as in the treated plot, except that the dilution containing natural pyrethrin or MX is not sprayed (this is referred to as an untreated plot). Six days after spraying, the number of surviving insects is observed, and a control value is calculated by formula 1).
Letters in the formula have the following meanings • Cb: The number of insects tested in the untreated plot • Cai: The number of surviving insects at the time of observation in the untreated plot • Tb: The number of tested insects in the treated plot • Tai: The number of surviving insects at the time of observation in the treated plot

[4] = tested on: brown planthopper, susceptible line or reduced susceptible line; test: Test Example 18: spray on rice seedlings, mortality rate; settings: brown planthopper 3rd-instar larvae on rice; 0.05-200 ppm; six days
Protocol: Natural pyrethrin or MX is formulated according to the method described in the Formulation Example 1. Similarly, flupyradifuron and flupyrimin are formulated according to the method described in the Formulation Example 4, respectively. Each of the above formulations is diluted with water containing 0.05% by volume of a spreading agent (product name: Shindain (registered trademark)) so that the concentration of active ingredient may be 0.05 ppm, 0.2 ppm, 0.8 ppm, 3.1 ppm, 12.5 ppm, 50 ppm or 200 ppm. Admire wettable powder (Active ingredient: imidacloprid, manufactured by Bayer CropScience K.K.), which is a commercial product, is diluted with water containing 0.05% by volume of a spreading agent (product name: Shindain (registered trademark)) so that the concentration of active ingredient may be 0.05 ppm, 0.2 ppm, 0.8 ppm, 3.1 ppm, 12.5 ppm, 50 ppm or 200 ppm. The resulting dilution is sprayed to seedlings (at the 2.5-leaf stage) of rice (Oryza sativa) planted in a container at a rate of 10 ml/seedling. After that, 20 3rd-instar larvae of brown planthopper of a susceptible line (a line that have been bred successively in Health & Crop Sciences Research Laboratory of Sumitomo Chemical Co., Ltd.) or brown planthopper of a reduced susceptible line (a line that have been bred successively without selection after collecting in Nagasaki prefecture in 2016) are released thereto. Six days later, the number of surviving insects is observed, and a mortality rate of insect is calculated by formula 2). On the other hand, rice is cultivated in the same way as in the treated plot, except that the dilution containing natural pyrethrin or MX is not sprayed (this is referred to as an untreated plot).

[5] = tested on: white-backed planthopper, susceptible line or reduced susceptible line; test: Test Example 21: spray on rice seedlings, mortality rate; settings: white-backed planthopper 3rd-instar larvae on rice; 0.05-200 ppm; six days
Protocol: Natural pyrethrin or MX is formulated according to the method described in the Formulation Example 1. Each of the above formulations is diluted with water containing 0.05% by volume of a spreading agent (product name: Shindain (registered trademark)) so that the concentration of active ingredient may be 0.05 ppm, 0.2 ppm, 0.8 ppm, 3.1 ppm, 12.5 ppm, 50 ppm or 200 ppm. PRINCE flowable (Active ingredient: fipronil, manufactured by BASF Japan Ltd.) and KIRAPPU flowable (Active ingredient: ethiprole, manufactured by Bayer CropScience K.K.), which are commercial products, are diluted with water containing 0.05% by volume of a spreading agent (product name: Shindain (registered trademark)), respectively so that the concentration of active ingredient may be 0.05 ppm, 0.2 ppm, 0.8 ppm, 3.1 ppm, 12.5 ppm, 50 ppm or 200 ppm. The resulting dilution is sprayed to seedlings (at the 2.5-leaf stage) of rice planted in a container at a rate of 10 ml/seedling. […] Six days later, the number of surviving insects is observed, and a mortality rate of insect is calculated by the formula 2). […]

| Structure (SMILES) | effect (mortality rate) on the reduced susceptible line compared with the susceptible line [1] | effect (control value) on the reduced susceptible line compared with the susceptible line [3] | further results |
| --- | --- | --- | --- |
| CCOc1ccc(C(C)(C)COCc2cccc(Oc3ccccc3)c2)cc1 [etofenprox] | low compared with that on the sensitive line |  |  |
| Cc1cc(C(F)(C(F)(F)F)C(F)(F)F)ccc1NC(=O)c1cccc(I)c1C(=O)NC(C)(C)CS(C)(=O)=O [flubendiamide] |  |  | effect (mortality rate) on the reduced susceptible line compared with the susceptible line [2]: low compared with that on the sensitive line |
| CN1COCN(Cc2cnc(Cl)s2)/C1=N\[N+](=O)[O-] [thiamethoxam] |  | low compared with that on the sensitive line |  |
| O=C(N=c1ccccn1Cc1ccc(Cl)nc1)C(F)(F)F [flupyrimin] | low compared with that on the sensitive line | low compared with that on the sensitive line | effect (mortality rate) on the reduced susceptible line compared with the susceptible line [4]: low compared with that on the sensitive line |
| O=C1C=C(N(Cc2ccc(Cl)nc2)CC(F)F)CO1 [flupyradifuron] | low compared with that on the sensitive line | low compared with that on the sensitive line | effect (mortality rate) on the reduced susceptible line compared with the susceptible line [4]: low compared with that on the sensitive line |
| CC(C)N1C(=O)N(c2ccccc2)CS/C1=N\C(C)(C)C [buprofezin] | low compared with that on the sensitive line |  |  |
| O=c1c(-c2cccc(C(F)(F)F)c2)c([O-])[n+](Cc2cncnc2)c2ccccn12 [triflumezopyrim] |  | low compared with that on the sensitive line |  |
| N#Cc1nn(-c2c(Cl)cc(C(F)(F)F)cc2Cl)c(N)c1[S+]([O-])C(F)(F)F (centres unmarked) [fipronil] | low compared with that on the sensitive line |  | effect (mortality rate) on the reduced susceptible line compared with the susceptible line [5]: low compared with that on the sensitive line |
| O=[N+]([O-])NC1=NCCN1Cc1ccc(Cl)nc1 [imidacloprid] | low compared with that on the sensitive line | low compared with that on the sensitive line | effect (mortality rate) on the reduced susceptible line compared with the susceptible line [4]: low compared with that on the sensitive line |
| CC[S+]([O-])c1c(C#N)nn(-c2c(Cl)cc(C(F)(F)F)cc2Cl)c1N (centres unmarked) [ethiprole] | low compared with that on the sensitive line |  | effect (mortality rate) on the reduced susceptible line compared with the susceptible line [5]: low compared with that on the sensitive line |
| CNC(=O)c1cc(Cl)cc(C)c1NC(=O)c1cc(Br)nn1-c1ncccc1Cl [chlorantraniliprole] |  |  | effect (mortality rate) on the reduced susceptible line compared with the susceptible line [2]: low compared with that on the sensitive line |
| CNC(=O)c1cc(C#N)cc(C)c1NC(=O)c1cc(Br)nn1-c1ncccc1Cl [cyantraniliprole] |  |  | effect (mortality rate) on the reduced susceptible line compared with the susceptible line [2]: low compared with that on the sensitive line |
